Measurements published in PMC3945819, “Ligand-Dependent Dynamics of the Active-Site Lid in Bacterial Dimethylarginine Dimethylaminohydrolase” (Biochemistry, 2014).
Changes are numbered by the printed parent chain. “Also recorded” adds a separate entry of the source.

Key:
[1] = target: T1, MDCC-Ser20Cys TM-PaDDAH (fl-TM-PaDDAH) (Pseudomonas aeruginosa, UniProt Q9I4E3, C249S/R40E/R98H/S20C); assay: MDCC fluorescence titration, Ser20Cys variant; assay type: binding
T1 construct: polyhistidine (cleaved yes); made in house; host or cells: Escherichia coli BL21 (DE3)
T1 sequence (Q9I4E3 1-254 S20C/R40E/R98H/C249S): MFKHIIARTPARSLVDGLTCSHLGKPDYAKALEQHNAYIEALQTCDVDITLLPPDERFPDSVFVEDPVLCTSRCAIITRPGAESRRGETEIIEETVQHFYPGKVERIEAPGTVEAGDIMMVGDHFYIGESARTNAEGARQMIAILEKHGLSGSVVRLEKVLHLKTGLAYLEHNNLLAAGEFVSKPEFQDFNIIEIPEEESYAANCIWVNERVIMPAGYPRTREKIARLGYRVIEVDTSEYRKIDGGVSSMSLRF
Experimental: (§1) DM- or TM-PaDDAH constructs were mutated to contain an additional, solvent-exposed Cys residue at residue positions corresponding to Thr19, Ser 20, Ser84, and Asp244. Following expression, the purified proteins were each incubated in buffer A with 1 mM dithiothreitol (DTT) for 0.5 h. The sample was then passed through a desalting PD-10 column (GE Healthcare) in buffer A and concentrated to 100 μM. N-[2-(1-Maleimidyl)ethyl]-7-(diethylamino)coumarin-3-carboxamide (MDCC)[32] dissolved in DMF (20 mM) was added to a 2-fold excess, and the solution was incubated for 1 h. The reaction mixture was passed again through a fresh desalting column to remove unreacted label. The labeled protein concentration was measured by spectrophotometry (ε430 (MDCC) = 46 800 M^–1 cm^–1, ε280(MDCC) = 7470 M^–1 cm^–1, ε280(PaDDAH) = 18 910 M^–1 cm^–1). Formation of the product was assessed by electrospray ionization mass spectrometry.
(§2) PaDDAH fluorescence spectra were measured at 25 °C on an FP-6300 spectrofluorometer (Jasco Ltd.) in buffer A. MDCC fluorescence was excited at 430 nm and emission was recorded at 476 nm. The change in fluorescence emission intensity with ligand concentration was fit to a 1:1 binding isotherm using nonlinear least-squares Python code written in-house.

[2] = target: T2, MDCC-Ser20Cys DM-PaDDAH (fl-DM-PaDDAH) (Pseudomonas aeruginosa, UniProt Q9I4E3, R40E/R98H/S20C); assay: Stopped-flow fluorescence binding kinetics with fl-DM-PaDDAH
T2 construct: the 254 residue DM-PaDDAH; polyhistidine (cleaved yes); made in house; host or cells: Escherichia coli BL21 (DE3)
T2 sequence (Q9I4E3 1-254 S20C/R40E/R98H): T1 sequence (Q9I4E3 1-254 S20C/R40E/R98H/C249S) with S249C
Experimental: (§3) Stopped-flow experiments were carried out in buffer A at 25 °C using a HiTech SF61 DX2 stopped-flow instrument equipped with a Xe/Hg lamp (TgK Scientific, UK). MDCC fluorescence was excited at 436 nm, and emission was detected by a photomultiplier after a 455 nm cutoff filter (Schott glass). Protein (1 μM) was mixed with the ligand (ADMA or L-citrulline) at various concentrations up to 4 mM. In the mixing cell, concentrations were half these. Each fluorescence time course was fitted to a single exponential function [drawing 1] with the observed first-order rate constant, kobs, and maximum fluorescence change, ΔFmax.
(§4) For mixing L-citrulline with MDCC-Ser20Cys TM-PaDDAH (fl-TM-PaDDAH), the dependence of kobs on L-citrulline concentration ([L-cit]) was linearly fitted for the association reaction: [drawing 2] [drawing 3] For the mixing of L-citrulline with MDCC-Ser20Cys DM-PaDDAH (fl-DM-PaDDAH) conversion of the substrate to products is included, using this reaction scheme: [drawing 4] [drawing 5] where kcat is the rate constant for the conversion of the enzyme–substrate complex to dissociated products. Under the pseudo-first-order conditions of the experiment, where the change in fluorescence was attributed to the formation of the fl-DM-PaDDAH/ADMA complex, the dependence of kobs on ADMA concentration was fitted to a straight-line graph: [drawing 6]

TM-PaDDAH = target: T3, TM-PaDDAH (Pseudomonas aeruginosa, UniProt Q9I4E3, C249S/R40E/R98H); assay: Substrate conversion by TM-PaDDAH observed by 1D 1H NMR; assay type: biochemical; settings: conversion of ADMA to DMA and L-citrulline, high TM-PaDDAH concentration, over hours
T3 construct: polyhistidine (cleaved yes); made in house; host or cells: Escherichia coli BL21 (DE3)
T3 sequence (Q9I4E3 1-254 R40E/R98H/C249S): T1 sequence (Q9I4E3 1-254 S20C/R40E/R98H/C249S) with C20S
Experimental: (§5) For NMR measurements, the protein samples were prepared at 0.8 mM concentration (for resonance assignments and relaxation measurements) or 0.3 mM (for ligand titrations) in buffer A, supplemented with 10% v/v D2O. Saturating concentrations of L-citrulline were included in the bound state samples: 15 mM for DM-PaDDAH and 1.0 mM for TM-PaDDAH. A variety of NMR spectrometers were used during this work: resonance assignments were obtained from 3D triple resonance data sets (HNCA, HNCACB, CBCACONH, HNCO, HN(CA)CO)[12] obtained at either 600 or 700 MHz ^1H frequency. Two-dimensional ^15N, ^1H-HSQC experiments to monitor ligand binding were recorded using a 700 MHz instrument. ^15N relaxation measurements[13],[14] were performed at both 600 and 800 MHz. The majority of the data sets were recorded using a cryogenically cooled triple resonance probe, with the sample temperature maintained at a calibrated 25 °C. The pulse sequences employed H2O-selective “flip-back” pulses and WATERGATE to minimize the effects of H^N-resonance cross-saturation.[15],[16] Ligand-induced chemical shift perturbations differences for ligand titrations were computed using the formula Δδ = [(Δδ^1H^N)^2 + (Δδ^15N/5)^2]^1/2.

unmodified DM-PaDDAH = settings: estimated previously for unmodified DM-PaDDAH; cited from earlier work
[3] = target: T4, DM-PaDDAH (Arg40Glu/Arg98His double mutant PaDDAH) (Pseudomonas aeruginosa, UniProt Q9I4E3, R40E/R98H); assay: NMR 15N,1H-HSQC ligand titration of DM-PaDDAH; assay type: binding; settings: for binding of byproduct to the protein by NMR titration: separate NMR titrations
T4 construct: the 254 residue DM-PaDDAH; polyhistidine (cleaved yes); made in house; host or cells: Escherichia coli BL21 (DE3)
T4 sequence (Q9I4E3 1-254 R40E/R98H): T1 sequence (Q9I4E3 1-254 S20C/R40E/R98H/C249S) with C20S, S249C
Experimental: as §5

[4] = target: T5, TM-PaDDAH (Arg40Glu/Arg98His/Cys249Ser triple mutant PaDDAH) (Pseudomonas aeruginosa, UniProt Q9I4E3, C249S/R40E/R98H); assay: NMR 15N,1H-HSQC ligand titration of TM-PaDDAH; assay type: binding; settings: NMR peak intensity titration (Gly24, Glu158, Lys159), 0.3 mM TM-PaDDAH, 25 °C; read-out: dissociation constant KD^(TM/L-cit)
T5 construct: polyhistidine (cleaved yes); made in house; host or cells: Escherichia coli BL21 (DE3)
T5 sequence (Q9I4E3 1-254 R40E/R98H/C249S): T1 sequence (Q9I4E3 1-254 S20C/R40E/R98H/C249S) with C20S
Experimental: as §5

MDCC-Thr19Cys TM-PaDDAH = target: T6, MDCC-Thr19Cys TM-PaDDAH (Pseudomonas aeruginosa, UniProt Q9I4E3, C249S/R40E/R98H/T19C); assay: MDCC fluorescence titration, Thr19Cys variant; assay type: binding; settings: static MDCC fluorescence titration, 25 °C, buffer A; fluorescence decreased; read-out: equilibrium dissociation constant
T6 construct: polyhistidine (cleaved yes); made in house; host or cells: Escherichia coli BL21 (DE3)
T6 sequence (Q9I4E3 1-254 T19C/R40E/R98H/C249S): T1 sequence (Q9I4E3 1-254 S20C/R40E/R98H/C249S) with T19C, C20S
Experimental: as §1, §2

MDCC-Ser84Cys TM-PaDDAH = target: T7, MDCC-Ser84Cys TM-PaDDAH (Pseudomonas aeruginosa, UniProt Q9I4E3, C249S/R40E/R98H/S84C); assay: MDCC fluorescence titration, Ser84Cys variant; assay type: binding; settings: static MDCC fluorescence titration, 25 °C, buffer A; fluorescence decreased; read-out: equilibrium dissociation constant
T7 construct: polyhistidine (cleaved yes); made in house; host or cells: Escherichia coli BL21 (DE3)
T7 sequence (Q9I4E3 1-254 R40E/S84C/R98H/C249S): T1 sequence (Q9I4E3 1-254 S20C/R40E/R98H/C249S) with C20S, S84C
Experimental: as §1, §2

MDCC-Asp244Cys TM-PaDDAH = target: T8, MDCC-Asp244Cys TM-PaDDAH (Pseudomonas aeruginosa, UniProt Q9I4E3, C249S/D244C/R40E/R98H); assay: MDCC fluorescence titration, Asp244Cys variant; assay type: binding; settings: static MDCC fluorescence titration, 25 °C, buffer A; fluorescence decreased; read-out: equilibrium dissociation constant
T8 construct: polyhistidine (cleaved yes); made in house; host or cells: Escherichia coli BL21 (DE3)
T8 sequence (Q9I4E3 1-254 R40E/R98H/D244C/C249S): T1 sequence (Q9I4E3 1-254 S20C/R40E/R98H/C249S) with C20S, D244C
Experimental: as §1, §2

[5] = target: T1, MDCC-Ser20Cys TM-PaDDAH (fl-TM-PaDDAH); assay: Stopped-flow fluorescence binding kinetics with fl-TM-PaDDAH
Experimental: as §3, §4

wild-type PaDDAH = settings: wild-type protein; read-out: Ki^(L-cit); cited from earlier work
Cys249 = Cys249 (UniProt position 249, DGGVSCMSLRF); settings: ligand-free (absence of ligand); cited from earlier work

CN(C)C(=N)NCCCC(N)C(=O)O (stereo not drawn) [ADMA, asymmetric N^η,N^η-dimethylarginine]
fluorescence response / binding of substrate to fl-TM-PaDDAH ([1]; low protein concentrations of fluorescence experiments): no fluorescence change; also recorded: no evidence of substrate binding or turnover
binding tighter than for the reaction product L-citrulline ([2]; KD^(DM/ADMA) versus KD^(DM/L-cit)): 30 fold
koff^(DM/ADMA) ([2]; assuming kcat = 0.5 s^–1): 2.0 s^–1
kon^(DM/ADMA) ([2]; stopped-flow, linear fit of kobs vs concentration, 25 °C): 1.8 × 10^5 M^–1 s^–1
catalytic activity of the mutant enzyme (TM-PaDDAH): ~0.04 h^–1
kcat (unmodified DM-PaDDAH): 0.5 s^–1

NC(=O)NCCC[C@H](N)C(=O)O [L-citrulline]
Kd ([3]; NMR chemical shift titration, 0.3 mM DM-PaDDAH, 1:1 model, buffer A pH 7.0, 25 °C, read-out: dissociation constant KD^(DM/L-cit)): 3600 ± 100 µM
koff ([3]; from NMR KD and assumed kon similar to kon^(TM/L-cit) and kon^(DM/ADMA), read-out: koff^(DM/L-cit) predicted): ~500 s⁻¹
Kd [4]: 3.5 ± 1.5 µM
Kd (MDCC-Thr19Cys TM-PaDDAH): 10.8 ± 1.1 µM
Kd ([1]; static MDCC fluorescence titration, 25 °C, buffer A, fluorescence increased, read-out: equilibrium dissociation constant): 7.2 ± 1.6 µM
Kd (MDCC-Ser84Cys TM-PaDDAH): 15.7 ± 2.8 µM
Kd (MDCC-Asp244Cys TM-PaDDAH): 23.5 ± 2.7 µM
Kd ([5]; from stopped-flow binding kinetics, read-out: predicted equilibrium dissociation constant KD^(TM/L-cit) (= koff/kon)): 8.4 µM
koff ([5]; stopped-flow, linear fit of kobs vs concentration, 25 °C, read-out: koff^(TM/L-cit)): 0.86 s⁻¹
kon ([5]; stopped-flow, linear fit of kobs vs concentration, 25 °C, read-out: kon^(TM/L-cit)): 100000 M⁻¹ s⁻¹
fluorescence signal for binding to fl-DM-PaDDAH [2]: no signal for binding
Ki (wild-type PaDDAH): 8400 µM

CNC [dimethylamine]
binding of byproduct to the protein by NMR titration [3]: did not detectably bind

CN [methylamine]
binding of byproduct to the protein by NMR titration [3]: did not detectably bind

Dimethylarginine dimethylaminohydrolase (PaDDAH) (Pseudomonas aeruginosa)
pKa (Cys249): 8.8
